Measured values published in US7834024B2, “Compositions and methods for inhibition of the JAK pathway” (Rigel Pharmaceuticals, Inc., priority 2007, dated 2010).

test system: Ramos B-Cell Line Stimulated with IL-4 (JAK-1 and JAK-3 / Stat-6, CD23); experiment: Assay for Ramos B-Cell Line Stimulated with IL-4 (CD23 upregulation, FACS); assay type: cell-based; conditions: Homo sapiens, Ramos, human Ramos B cells, compound 1 hour, IL-4 50 units/mL for 20-24 hours, anti-CD23-PE FACS; read-out: Example 2 (IC50)
Excerpt: One means of assaying for such inhibition is detection of the effect of the 2,4-pyrimidinediamine compounds on the upregulation of downstream gene products. In the Ramos/IL4 assay, B-cells are stimulated with the cytokine Interleukin-4 (IL-4) leading to the activation of the JAK/Stat pathway through phosphorylation of the JAK family kinases, JAK1 and JAK3, which in turn phosphorylate and activate the transcription factor Stat-6. […] To study the effect of inhibitors (e.g., the 2,4-substituted pyrimindinediamine compounds described herein) on the JAK1 and JAK3 kinases, human Ramos B cells are stimulated with human IL-4. 20 to 24 hours post stimulation, cells are stained for upregulation of CD23 and analyzed using flow cytometry (FACS).
B-cells stimulated with cytokine Interleukin-4 (IL-4) activate the JAK/Stat pathway through phosphorylation of the JAK family kinases, JAK-1 and JAK-3, which in turn phosphorylate and activate the transcription factor Stat-6. […] To study the effect of inhibitors on the JAK family kinases, human Ramos B cells were stimulated with human IL-4.
Cells were maintained at a density of 3.5×10^5. The day before the experiment, Ramos B-cells were diluted to 3.5×10^5 cells/mL to ensure that they were in a logarithmic growth phase.
Cells were spun down and suspended in RPMI with 5% serum. 5×10^4 cells were used per point in a 96-well tissue culture plate. Cells were pre-incubated with compound or DMSO (Sigma-Aldrich, St. Louis, Mo., Cat No. D2650) vehicle control for 1 hour in a 37° C. incubator. Cells were then stimulated with IL-4 (Peprotech Inc., Rocky Hill, N.J., Cat No. 200-04) for a final concentration of 50 units/mL for 20-24 hours. […] Detection was performed using a BD LSR I System Flow Cytometer, purchased from Becton Dickinson Biosciences of San Jose, Calif.

Row | Compound | IC50 [nM]
1 | NC(=O)COc1cccc(Nc2nc(Nc3cccc(C(N)=O)c3)ncc2F)c1 [Compound I-33, N4-(3-Aminocarbonylmethoxyphenyl)-N2-(3-aminocarbonylphenyl)-5-fluoro-2,4-pyrimidinediamine] | 3050
2 | N#CCOc1ccc(Nc2nc(Nc3ccc(CC#N)cc3)ncc2F)cc1 [Compound I-64, N4-(4-Cyanomethoxyphenyl)-N2-(4-cyanomethylphenyl)-5-fluoro-2,4-pyrimidinediamine] | 79.7
3 | Cc1cnc(Nc2cnc3c(c2)OCC(=O)N3)nc1Nc1cnc2c(c1)OCC(=O)N2 [VII-3, N4,N2-Bis(3-oxo[4H]-5-pyrido[1,4]oxazin-7-yl)-5-methyl-2,4-pyrimidinediamine] | 195
4 | N#CCc1ccc(Nc2ncc(F)c(Nc3ccc(OCC(N)=O)cc3)n2)cc1 [Compound I-76, N4-(4-Aminocarbonylmethoxyphenyl)-N2-(4-cyanomethylphenyl)-5-fluoro-2,4-pyrimidinediamine] | 278
5 | Cc1noc(COc2ccc(Nc3nc(Nc4cccc(C#N)c4)ncc3F)c(C)c2)n1 [Compound I-116, N2-(3-Cyanophenyl)-5-fluoro-N4-[2-methyl-4-((3-methyl-1,2,4-oxadiazol-5-yl)methoxy)phenyl]-2,4-pyrimidinediamine] | 1440
6 | CCc1cc(Nc2ncc(F)c(Nc3ccc4c(c3)NC(=O)C(F)(F)O4)n2)cc(C#N)c1Cl [II-24, N2-(4-Chloro-3-cyano-5-ethylphenyl)-N4-(2,2-difluoro-3-oxo-4H-benzo[1,4]oxazin-6-yl)-5-fluoro-2,4-pyrimidinediamine] | 1740
7 | N#CCOc1cccc(Nc2nc(Nc3cccc(C(N)=O)c3)ncc2F)c1 [Compound I-45, N2-(3-Aminocarbonylphenyl)-N4-(3-cyanomethoxyphenyl)-5-fluoro-2,4-pyrimidinediamine] | 426
8 | COc1ccc(Nc2nc(Nc3ccc(C(=O)Nc4ccn(C)n4)cc3)ncc2F)cc1Cl [Compound I-2, N4-(3-Chloro-4-methoxyphenyl)-5-fluoro-N2-[4-((1-methyl-1H-pyrazol-3-yl)aminocarbonyl)phenyl]-2,4-pyrimidinediamine] | 317
9 | N#CCOc1ccc(Nc2nc(Nc3cccc(C(N)=O)c3)ncc2F)cc1 [Compound I-28, N2-(3-Aminocarbonylphenyl)-N4-(4-cyanomethoxyphenyl)-5-fluoro-2,4-pyrimidinediamine] | 65.1
10 | NC(=O)c1ccc(Nc2ncc(F)c(Nc3cccc(-c4ncco4)c3)n2)cc1 [Compound I-13, N2-(4-Aminocarbonylphenyl)-5-fluoro-N4-[3-(oxazol-2-yl)phenyl]-2,4-pyrimidinediamine] | 752
11 | CCc1cc(Nc2ncc(F)c(Nc3ccc4c(c3)NC(=O)CO4)n2)cc(C#N)c1Cl [II-27, N2-(4-Chloro-3-cyano-5-ethylphenyl)-5-fluoro-N4-(3-oxo-2H,4H-benzo[1,4]oxazin-6-yl)-2,4-pyrimidinediamine] | 4820
12 | COc1ccc(Nc2nc(Nc3ccc4oc(C(=O)NCCN5CCOCC5)cc4c3)ncc2F)cc1Cl [III-1, N4-(3-Chloro-4-methoxyphenyl)-5-fluoro-N2-[2-(2-(N-morpholinyl)ethylaminocarbonyl)benzofuran-5-yl]-2,4-pyrimidinediamine] | 150
13 | CNC(=O)c1cc(Nc2ncc(F)c(Nc3ccc(CC#N)cc3)n2)ccc1N1CCN(C)CC1 [Compound I-75, N4-(4-Cyanomethylphenyl)-5-fluoro-N2-[3-methylaminocarbonyl-4-(4-methylpiperazin-1-yl)phenyl]-2,4-pyrimidinediamine] | 694
14 | NC(=O)COc1cccc(Nc2nc(Nc3ccc(C(N)=O)cc3)ncc2F)c1 [Compound I-32, N4-(3-Aminocarbonylmethoxyphenyl)-N2-(4-aminocarbonylphenyl)-5-fluoro-2,4-pyrimidinediamine] | 184
15 | Cc1noc(CCc2ccc(Nc3nc(Nc4ccc(CCC#N)cc4)ncc3F)cc2)n1 [Compound I-121, 5-Fluoro-N4-[4-(2-(3-methyl-1,2,4-oxadiazol-5-yl)ethyl)phenyl]-N2-[4-(2-cyanoethyl)phenyl]-2,4-pyrimidinediamine] | 2140
16 | CN1CCN(c2ccc(Nc3ncc(F)c(Nc4ccc(OCC(N)=O)cc4)n3)cc2C(N)=O)CC1 [Compound I-38, N2-[3-Aminocarbonyl-4-(4-methylpiperazin-1-yl)phenyl]-N4-(4-aminocarbonylmethoxyphenyl)-5-fluoro-2,4-pyrimidinediamine] | 533
17 | CN1CCOc2cc(Nc3nc(Nc4ccc(C(N)=O)cc4)ncc3F)ccc21 [II-3, N2-(4-Aminocarbonylphenyl)-N4-(3,4-dihydro-4-methyl-2H-benzo[1,4]oxazin-7-yl)-5-fluoro-2,4-pyrimidinediamine] | 62.9
18 | CC(C)OC(=O)COc1ccc(Nc2nc(Nc3ccc(C(=O)N4CCN(C)CC4)cc3)ncc2F)cc1 [Compound I-26, 5-Fluoro-N4-[4-((1-methylethoxy)carbonylmethoxy)phenyl]-N2-[4-((4-methylpiperazin-1-yl)carbonyl)phenyl]-2,4-pyrimidinediamine] | 1830

same assay, conditions: human Ramos B cells, compound 1 hour, IL-4 50 units/mL for 20-24 hours, anti-CD23-PE FACS; read-out: Example 2 (IC50)

Row | Compound | IC50 [nM]
19 | CNC(=O)COc1cccc(Nc2ncc(F)c(Nc3ccc4c(c3)N(Cc3ccccn3)C(=O)CO4)n2)c1 [II-14, 5-Fluoro-N2-[3-(N-methylaminocarbonylmethyleneoxy)phenyl]-N4-[3-oxo-4-(2-pyridinylmethyl)-2H-benzo[1,4]oxazin-6-yl]-2,4-pyrimidinediamine] | 672
20 | Cc1nc(COc2ccc(Nc3nc(Nc4ccc(C(=O)N5CCN(C)CC5)cc4)ncc3F)cc2)no1 [Compound I-61, 5-Fluoro-N4-[4-((5-methyl-1,2,4-oxadiazol-3-yl)methoxy)phenyl]-N2-[4-((4-methylpiperazin-1-yl)carbonyl)phenyl]-2,4-pyrimidinediamine] | 898
21 | 5-Fluoro-N2-[2-(2-(N-morpholinyl)ethylaminocarbonyl)benzofuran-5-yl]-N4-[4-(2-propynyloxy)phenyl]-2,4-pyrimidinediamine [III-3] | 149
22 | Cc1cnc(Nc2cccc(C(N)=O)c2)nc1Nc1ccc2c(c1)NC(=O)CO2 [II-38, N2-(3-Aminocarbonylphenyl)-N4-(3,4-dihydro-2H-3-oxo-4H-benz[1,4]oxazin-6-yl)-5-methyl-2,4-pyrimidinediamine] | 177
23 | CNC(=O)COc1cccc(Nc2ncc(F)c(Nc3ccc4c(c3)N(CC#N)C(=O)CO4)n2)c1 [II-11, N4-(4-Cyanomethyl-3-oxo-2H-benzo[1,4]oxazin-6-yl)-5-fluoro-N2-[3-(N-methylaminocarbonylmethyleneoxy)phenyl]-2,4-pyrimidinediamine] | 28
24 | N2-[2,3-Dihydro-1-(2-(N-morpholinyl)ethylaminocarbonyl)-1H-indol-6-yl]-N4-[4-(2-propynyloxy)phenyl]-2,4-pyrimidinediamine [VI-1] | 1010
25 | CNC(=O)COc1cc(Nc2ncc(F)c(Nc3ccc4c(c3)NC(=O)C(F)(F)O4)n2)cc(OC)c1OC [II-20, N4-(2,2-Difluoro-3-oxo-4H-benzo[1,4]oxazin-6-yl)-N2-[4,5-Dimethoxy-3-(N-methylaminocarbonylmethyleneoxy)phenyl]-5-fluoro-2,4-pyrimidinediamine] | 480
26 | Cc1cnc(Nc2cccc(C(N)=O)c2)nc1Nc1ccc(OCc2ccccn2)cc1 [Compound I-134, N2-(3-Aminocarbonylphenyl)-5-methyl-N4-[4-(2-pyridinylmethyleneoxy)phenyl]-2,4-pyrimidinediamine] | 84.6
